Assay results as given in the supplement of paper PMC10307832.

Key:
Experiment in all cases: relative viability (nuclei count vs DMSO), 5 days (fraction); higher = more cells survive
[1] = compound: CNC(=O)c1cc(Oc2ccc(NC(=O)Nc3ccc(Cl)c(C(F)(F)F)c3)cc2)ccn1 [Sorafenib]
Procedure, shortened: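 Viability was defined as treated-well nuclei divided by vehicle-well nuclei, with the median taken over replicate plates. Cells from lung cancer lines sat overnight at 37 °C in 1536-well plates, received five √10-spaced library-drug doses by pinning on vehicle-anchored plates, and grew 5 days without medium change before one-step fixation, permeabilisation and Hoechst staining, 4× imaging and MetaXpress nuclear counts. Only plates with control CV under 25% and at least one doubling were kept.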

[2] = compound: CNC(=O)c1cc(Oc2ccc(NC(=O)Nc3ccc(Cl)c(C(F)(F)F)c3)cc2)ccn1 [Sorafenib] + CC(=O)c1c(C)c2cnc(Nc3ccc(N4CCNCC4)cn3)nc2n(C2CCCC2)c1=O [Palbociclib] (partner 0.5 µM)
Procedure, shortened: (§1)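 Lung cancer cell lines in 1536-well plates were dosed by pin tool the day after seeding, either with one drug alone or with a fixed anchor-drug dose plus five library-drug doses (not always all listed) in √10 steps. After 5 days, cells were fixed and their nuclei stained in one step (final 0.05% Triton X-100, 1% formaldehyde, 1 ug/ml Hoechst), then counted on 4× images. Relative viability is the nuclei count in treated wells divided by that in vehicle wells. Values are medians of duplicate plates.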

[3] = compound: CNC(=O)c1cc(Oc2ccc(NC(=O)Nc3ccc(Cl)c(C(F)(F)F)c3)cc2)ccn1 [Sorafenib] + COc1cc2c(Oc3ccc(NC(=O)C4(C(=O)Nc5ccc(F)cc5)CC4)cc3F)ccnc2cc1OCCCN1CCOCC1 [Foretinib] (partner 0.25 µM)
Procedure, shortened: as §1

[4] = compound: CNC(=O)c1cc(Oc2ccc(NC(=O)Nc3ccc(Cl)c(C(F)(F)F)c3)cc2)ccn1 [Sorafenib] + CS(=O)(=O)CCNCc1ccc(-c2ccc3ncnc(Nc4ccc(OCc5cccc(F)c5)c(Cl)c4)c3c2)o1 [Lapatinib] (partner 2 µM)
Procedure, shortened: as §1

[5] = compound: CNC(=O)c1cc(Oc2ccc(NC(=O)Nc3ccc(Cl)c(C(F)(F)F)c3)cc2)ccn1 [Sorafenib] + O=C(c1cc(Cc2n[nH]c(=O)c3ccccc23)ccc1F)N1CCN(C(=O)C2CC2)CC1 [Olaparib] (partner 8 µM)
Procedure, shortened: as §1

Cell Line	relative viability ([1]; 0.08 µM)	relative viability ([1]; 0.253 µM)	relative viability ([1]; 2.53 µM)	relative viability ([1]; 8 µM)	relative viability ([2]; first compound 0.08 µM)	relative viability ([2]; first compound 0.253 µM)	relative viability ([2]; first compound 2.53 µM)	relative viability ([2]; first compound 8 µM)	relative viability ([3]; first compound 0.08 µM)	relative viability ([3]; first compound 0.253 µM)	relative viability ([3]; first compound 2.53 µM)	relative viability ([3]; first compound 8 µM)	relative viability ([4]; first compound 0.08 µM)	relative viability ([4]; first compound 0.253 µM)	relative viability ([4]; first compound 2.53 µM)	relative viability ([4]; first compound 8 µM)	relative viability ([5]; first compound 0.08 µM)	relative viability ([5]; first compound 0.253 µM)	relative viability ([5]; first compound 2.53 µM)	relative viability ([5]; first compound 8 µM)
LU99A	0.997	0.94	0.777	0.696	0.431	0.445	0.39	0.393	0.741	0.758	0.78	0.728	1.16	0.998	0.952	0.895	0.244	0.234	0.244	0.237
NCI-H2023	1.15	0.89	1.07	0.425	0.49	0.444	0.435	0.106	1.18	0.795	0.972	0.591		0.738	0.82	0.244	0.45	0.477	0.465	0.115
NCI-H1944	0.923	0.927	0.932	0.734	0.339	0.346	0.371	0.306	0.92	0.97	0.946	0.747	0.881	0.763	0.912	0.796	0.391	0.379	0.382	0.35
NCI-H1651	1.07	0.958	0.985		0.556	0.52	0.533	0.516	0.923		0.787	0.515	0.912	0.696	0.849	0.365	0.18	0.174	0.187	0.178
SK-LU-1	1.15	0.876	0.92	0.655	0.474	0.372	0.362	0.326	0.857	0.632	0.761	0.692	0.914	0.735	0.774	0.373	0.534	0.361	0.549	0.317
CAL-12T	1.01	0.882	0.985	0.644	0.512	0.396	0.489	0.247	1.39	1.05	1.03	0.868	0.768	0.685	0.724	0.682	0.81	0.616	0.639	0.602
EMC-BAC-2	1.05	0.786	0.938	0.873	0.519	0.439	0.467	0.477	1.02	0.819	1	0.658	0.924	0.813	0.883	0.879	0.473	0.387	0.45	0.461
NCI-H838	1.04	0.996	1.17	0.994	0.25	0.223	0.286	0.158	1.12	1.04	1.28	0.685	1.1	0.961	1.16	0.823	0.776	0.744	0.735	0.215
NCI-H460	1.01	0.918	1	0.654	0.176	0.118	0.136	0.137	0.972	0.997	0.972	0.622	1.02	0.868	0.915	0.807	0.399	0.335	0.345	0.324
HCC-15	1.05	0.912	1.05	0.69	0.77	0.619	0.708	0.48	0.999	0.933	1	0.869	0.816	0.777	0.831	0.617	0.701	0.641	0.575	0.442
ABC-1	1.07	0.808		0.584	0.712	0.682	0.854	0.725	1.06	1.11	1.38	0.392	1.25	1.19	1.23	0.726		0.565	0.693	0.4
PC-14	1.07	0.928	1.05		0.62	0.512	0.518	0.158	1.02	0.945	1.11	0.913	0.434	0.303	0.401	0.534	0.323	0.315	0.238	0.105
NCI-H1395	1.1	0.76	1.02	0.775	0.696		0.613	0.644	1.08	0.931	1.04	0.854	1.21	0.714	1.05	0.633	0.517		0.515	0.394
NCI-H727	1.15	0.768	0.88	0.691	0.688	0.616	0.681	0.569	0.936	1.11	0.909	0.739	0.777	0.597	0.771	0.486	0.826	0.666	0.693	0.659
HCC-366	1	1.02	1	0.999	0.393	0.424	0.323	0.353	0.927	0.957	0.937	0.94	1.21	0.859	0.805	1.04	0.354	0.319	0.287	0.268
